Earlier results, collected in patent publication US20120116113A1, “PROCESS FOR MAKING NEO-ENRICHED p-MENTHANE COMPOUNDS” (priority 2010, published 2012).

Details: for initial cooling rating: table below paragraph [0137] of U.S. Pat. Appl. 2010/0076080

Compound	initial cooling rating	cooling effect (according to Yelm et al., U.S. Pat. Appl. 2010/0076080)
CCOC(=O)CNC(=O)[C@@H]1C[C@H](C)CC[C@H]1C(C)C [normal WS-5]	53.9	–
CCOC(=O)CNC(=O)C1CC(C)CCC1C(C)C (stereo not drawn) [neo-WS-5]	61.9	–
CC(C)[C@@H]1CC[C@@H](C)C[C@@H]1C(=O)Nc1ccc(CC#N)cc1 (single isomer, unassigned) [neo isomer [of G-180]]	–	potent and long-lasting cooling effect
